Data on one molecule can be found in paper PMC8831520, “Small molecule SWELL1 complex induction improves glycemic control and nonalcoholic fatty liver disease in murine Type 2 diabetes” (Nature Communications, 2022).

The assay deals with T2D KKAy mice. Nature of the assay: Euglycemic hyperinsulinemic clamp with tracers. The assay is classed as in vivo, mouse. The protocol: Sterile silicone catheters (Dow-Corning) were placed into the jugular vein of mice under isoflurane anesthesia. The placed catheter was flushed with 200 U/mL heparin in saline and the free end of the catheter was directed subcutaneously via a blunted 14-gauge sterile needle and connected to a small tubing device that exited through the back of the animal. […] Hyperinsulinemic euglycemic clamps were performed on day 8 post-surgery on unrestrained, conscious mice as described elsewhere[82],[83], with some modifications. Mice were fasted for 6 h at which time insulin and glucose infusion were initiated (time 0). At 80 min prior to time 0 basal sampling was conducted, where whole-body glucose flux was traced by infusion of 0.05 μCi/min D-[3-^3H]-glucose (Perkin Elmer), after a priming 5 μCi bolus for 1 min. After the basal period, starting at time 0 D-[3-^3H]-glucose was continuously infused at the rate of 0.2 μCi/min and the infusion of insulin (Humulin, Eli Lilly) was initiated with a bolus of 80 mU/kg/min (10 µl volume for 1 min) then followed by continuous infusion of insulin at the dose of 8 mU/kg/min throughout the assay. Fifty percent dextrose (Hospira) was infused at variable rates (GIR) starting at the same time as the initiation of insulin infusion to maintain euglycemia at the targeted level of 150 mg/dL (8.3 mM). Blood glucose (BG) measurements were taken every ten minutes via tail vein sampling using a Contour glucometer (Bayer). After the mouse reached stable BG and GIR (typically, after 75 min since starting the insulin infusion; for some mice, a long time was required to achieve steady-state) a single bolus of 12 μCi of [1-^14C]-2-deoxy-D-glucose (Perkin Elmer) in 96 μl of saline was administered. Plasma samples (collected from centrifuged blood) for determination of tracers enrichment, glucose level, and insulin concentration were obtained at times −80, −20, −10, 0, and every 10 min starting at 80 min post-insulin (5 min after [1-^14C]-2-deoxy-D-glucose bolus was administered) until the conclusion of the assay at 140 min. Tissue samples were then collected from mice under isofluorane anesthesia from organs of interest (e.g., liver, heart, kidney, white adipose tissue, brown adipose tissue, gastrocnemius, soleus, etc.) for determination of 1-^14C]-2-deoxy-D-glucose tracer uptake. Plasma and tissue samples were processed as described previously. Briefly, plasma samples were deproteinized with Ba(OH)2 and ZnSO4 and dried to eliminate tritiated water. The glucose turnover rate (mg/kg-min) was calculated as the rate of tracer infusion (dpm/min) divided by the corrected plasma glucose specific activity (dpm/mg) per kg body weight of the mouse. Fluctuations from steady-state were accounted for by the use of Steele’s model. Plasma glucose was measured using the Analox GMD9 system (Analox Technologies).
Tissue samples (~30 mg each) were homogenized in 750 µl of 0.5% perchloric acid, neutralized with 10 M KOH, and centrifuged. The supernatant was then used for first measuring the abundance of total [1-^14C] signal (derived from both 1-^14C -2-deoxy-D-glucose, 1-^14C -2-deoxy-D-glucose 6 phosphate) and, following a precipitation step with 0.3 N […] and 0.3 N ZnSO4, for the measuring of non-phosphorylated 1-^14C -2-deoxy-D-glucose. Glycogen was isolated by ethanol precipitation from 30% KOH tissue lysates, as described. Insulin levels in plasma at T0 and T140 were measured using a Stellux ELISA rodent insulin kit (Alpco).

With `CCCCC1(C2CCCC2)Cc2cc(OCCCC(=O)O)c(Cl)c(Cl)c2C1=O` (centres unmarked) [SN-401, 4-((2-butyl-6,7-dichloro-2-cyclopentyl-1-oxo-2,3-dihydro-1H-inden-5-yl)oxy)butanoic acid], for the setting “KKAy mice”, the “glucose incorporation into glycogen in liver, adipose, and skeletal muscle” value is “markedly increased”; the “insulin-stimulated 2-DG uptake into iWAT, gWAT and myocardium” value is recorded as “enhanced”. In addition, the “glucose-infusion rate (GIR) to maintain euglycemia” value (KKAy mice, 5 mg/kg i.p. 4 days, vs vehicle) is given as “higher”. Also, the “reduction of rate of glucose appearance (Ra)” value (baseline (Basal)) stood at 40%. The “suppression of rate of glucose appearance (Ra)” value (during glucose/insulin infusion (Clamp)) amounted to 75%.
